*1 amine or outer side, *2 acyl side, *3 side chain or, on linkers, in order; H or OH if unused. Where a SMILES comes first, the peptide text is derived from it. Bridges are numbered along the chain shown (N, C = ends). [ ]: non-standard residue; d: D form. The star is where a group is joined. ξ: configuration not given here. Phe(3-CF3) = N[C@@H](Cc1cccc(C(F)(F)F)c1)C(=O)O; Ala(morpholin-4-yl) = N[C@@H](CN1CCOCC1)C(=O)O; Phe(4-COOH) = N[C@@H](Cc1ccc(C(=O)O)cc1)C(=O)O; Bip = N[C@@H](Cc1ccc(-c2ccccc2)cc1)C(=O)O; γGlu = O=C(O)[C@H](CCC(=O)[*:2])N[*:1]; NH(CH2)12COOH = O=C(O)CCCCCCCCCCCCN*; ξγGlu = O=C(O)C(CCC(=O)[*:2])N[*:1]; Val(3-OH) = CC(C)(O)[C@H](N)C(=O)O; Cha = N[C@@H](CC1CCCCC1)C(=O)O; Cit = NC(=O)NCCC[C@H](N)C(=O)O; Carboxymethyl = O=C(O)C*; NMeA = CN[C@@H](C)C(=O)O; Dab = NCC[C@H](N)C(=O)O; AEEA = NCCOCCOCC(=O)O

The target in this test is T1, PD-1/PD-L1 interaction (PE-labeled human PD-L1-Ig binding to Jurkat cell line over-expressing human PD-1) (Homo sapiens, UniProt Q15116).
T1 construct: expressed in transfected cells; host or cells: Jurkat
T1 sequence (Q15116 25-288): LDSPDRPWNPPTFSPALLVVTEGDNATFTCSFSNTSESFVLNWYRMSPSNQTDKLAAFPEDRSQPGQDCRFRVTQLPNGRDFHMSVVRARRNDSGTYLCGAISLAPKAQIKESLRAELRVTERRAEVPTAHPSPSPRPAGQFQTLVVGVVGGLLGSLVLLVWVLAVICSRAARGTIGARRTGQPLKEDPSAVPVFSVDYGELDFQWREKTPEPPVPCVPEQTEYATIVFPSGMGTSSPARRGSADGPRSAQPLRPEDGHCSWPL
Nature of the test: Jurkat-PD-1 Cell Binding High-Content Screening Assay (CBA). The settings on record: Jurkat-hPD-1 cells, PE-labeled PD-L1-Ig 20 nM final; read-out: Jurkat HPD1 PDL1 IC50. In short, it runs like this: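 Jurkat-hPD-1 cells (8×10^3/well) in DMEM with 10% fetal calf serum were preincubated with compound for 2 h at 37 °C. PE-labeled PD-L1-Ig was then added at 20 nM final for 1 h. Cells were fixed in paraformaldehyde with Hoechst 33342, washed and imaged by high-content imaging.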
Turning to `COC[C@@H]1NC(=O)CSC[C@@H](C(=O)N[C@@H](CCN)C(=O)NCCOCCOCC(=O)N[C@@H](CCC(=O)NCCOCCOCC(=O)NCCCCCCCCCCCCC(=O)O)C(=O)O)NC(=O)[C@H](CO)NC(=O)[C@H](C(C)(C)O)NC(=O)[C@H](CC2CCCCC2)NC(=O)[C@H](CCN)NC(=O)[C@@H](CC(C)C)NC(=O)[C@H](C)N(C)C(=O)[C@H](CCC(N)=O)NC(=O)[C@H](Cc2ccc(-c3ccccc3)cc2)NC(=O)[C@H](Cc2ccc(C(=O)O)cc2)NC(=O)[C@H](Cc2cccc(C(F)(F)F)c2)NC(=O)[C@H](CC(=O)O)NC(=O)[C@H](Cc2ccc(OCC(=O)O)cc2)NC1=O` [Example 1164] ({CH2CO}-S(Me)Y(Carboxymethyl)D[Phe(3-CF3)][Phe(4-COOH)][Bip]Q[NMeA][dL][Dab][Cha][Val(3-OH)]SC[Dab][AEEA][γGlu][AEEA]-{NH(CH2)12COOH}; thioether N-14), the IC50 came out at 0.0089 µM. In the case of `COC[C@@H]1NC(=O)CSC[C@@H](C(=O)N[C@@H](CCN)C(=O)NCCOCCOCC(=O)N[C@@H](CCC(=O)NCCOCCOCC(=O)NCCCCCCCCCCCCC(=O)O)C(=O)O)NC(=O)[C@H](CCCCNC(C)=O)NC(=O)[C@H](C(C)(C)O)NC(=O)[C@H](CC2CCCCC2)NC(=O)[C@H](CCN)NC(=O)[C@@H](CC(C)C)NC(=O)[C@H](C)N(C)C(=O)[C@H](CCC(N)=O)NC(=O)[C@H](Cc2ccc(-c3ccccc3)cc2)NC(=O)[C@H](Cc2ccc(C(=O)O)cc2)NC(=O)[C@H](Cc2cccc(C(F)(F)F)c2)NC(=O)[C@H](CC(=O)O)NC(=O)[C@H](Cc2ccc(OCC(=O)O)cc2)NC1=O` [Example 1165] ({CH2CO}-S(Me)Y(Carboxymethyl)D[Phe(3-CF3)][Phe(4-COOH)][Bip]Q[NMeA][dL][Dab][Cha][Val(3-OH)]K(Ac)C[Dab][AEEA][γGlu][AEEA]-{NH(CH2)12COOH}; thioether N-14), the 50% inhibitory concentration (IC50) worked out at 0.0218 µM. Under `COC[C@@H]1NC(=O)CSC[C@@H](C(=O)N[C@@H](CCN)C(=O)NCCOCCOCC(=O)NC(CCC(=O)NCCOCCOCC(=O)NCCCCCCCCCCCCC(=O)O)C(=O)O)NC(=O)[C@H](CCCCNC(C)=O)NC(=O)[C@H](C(C)(C)O)NC(=O)[C@H](CC2CCCCC2)NC(=O)[C@H](CCN)NC(=O)[C@@H](CC(C)C)NC(=O)[C@H](C)N(C)C(=O)[C@H](CCCNC(N)=O)NC(=O)[C@H](Cc2ccc(-c3ccccc3)cc2)NC(=O)[C@H](Cc2ccc(C(=O)O)cc2)NC(=O)[C@H](Cc2cccc(C(F)(F)F)c2)NC(=O)[C@H](CC(=O)O)NC(=O)[C@H](Cc2ccc(OCC(=O)O)cc2)NC1=O` (stereo partly drawn) [Example 1168] ({CH2CO}-S(Me)Y(Carboxymethyl)D[Phe(3-CF3)][Phe(4-COOH)][Bip][Cit][NMeA][dL][Dab][Cha][Val(3-OH)]K(Ac)C[Dab][AEEA][ξγGlu][AEEA]-{NH(CH2)12COOH}; thioether N-14) stands 0.0148 µM; under `COC[C@@H]1NC(=O)CSC[C@@H](C(=O)N[C@@H](CCN)C(=O)NCCOCCOCC(=O)N[C@@H](CCC(=O)NCCOCCOCC(=O)NCCCCCCCCCCCCC(=O)O)C(=O)O)NC(=O)[C@H](CCC(=O)O)NC(=O)[C@H](C(C)C)NC(=O)[C@H](CC2CCCCC2)NC(=O)[C@H](CCN)NC(=O)[C@@H](CC(C)C)NC(=O)[C@H](C)N(C)C(=O)[C@H](Cc2ccc(C(=O)O)cc2)NC(=O)[C@H](Cc2ccc(-c3ccccc3)cc2)NC(=O)[C@H](Cc2ccc(C(=O)O)cc2)NC(=O)[C@H](Cc2cccc(C(F)(F)F)c2)NC(=O)[C@H](CC(=O)O)NC(=O)[C@H](Cc2ccc(OCC(=O)O)cc2)NC1=O` [Example 1169] ({CH2CO}-S(Me)Y(Carboxymethyl)D[Phe(3-CF3)][Phe(4-COOH)][Bip][Phe(4-COOH)][NMeA][dL][Dab][Cha]VEC[Dab][AEEA][γGlu][AEEA]-{NH(CH2)12COOH}; thioether N-14), 0.0606 µM; under `COC[C@@H]1NC(=O)CSC[C@@H](C(=O)N[C@@H](CCN)C(=O)NCCOCCOCC(=O)N[C@@H](CCC(=O)NCCOCCOCC(=O)NCCCCCCCCCCCCC(=O)O)C(=O)O)NC(=O)[C@H](CO)NC(=O)[C@H](C(C)(C)O)NC(=O)[C@H](CC2CCCCC2)NC(=O)[C@H](CCN)NC(=O)[C@@H](CC(C)C)NC(=O)[C@H](C)N(C)C(=O)[C@H](Cc2ccc(C(=O)O)cc2)NC(=O)[C@H](Cc2ccc(-c3ccccc3)cc2)NC(=O)[C@H](Cc2ccc(C(=O)O)cc2)NC(=O)[C@H](Cc2cccc(C(F)(F)F)c2)NC(=O)[C@H](CC(=O)O)NC(=O)[C@H](Cc2ccc(OCC(=O)O)cc2)NC1=O` [Example 1170] ({CH2CO}-S(Me)Y(Carboxymethyl)D[Phe(3-CF3)][Phe(4-COOH)][Bip][Phe(4-COOH)][NMeA][dL][Dab][Cha][Val(3-OH)]SC[Dab][AEEA][γGlu][AEEA]-{NH(CH2)12COOH}; thioether N-14), 0.054 µM.

Regarding `CC(C)C[C@H]1NC(=O)[C@H](C)N(C)C(=O)[C@H](CCC(N)=O)NC(=O)[C@H](Cc2ccc(-c3ccccc3)cc2)NC(=O)[C@H](Cc2ccc(C(=O)O)cc2)NC(=O)[C@H](Cc2cccc(C(F)(F)F)c2)NC(=O)[C@H](CC(=O)O)NC(=O)[C@H](Cc2ccc(OCC(=O)O)cc2)NC(=O)[C@H](CN2CCOCC2)NC(=O)CSC[C@@H](C(=O)N[C@@H](CCN)C(=O)NCCOCCOCC(=O)N[C@@H](CCC(=O)NCCOCCOCC(=O)NCCCCCCCCCCCCC(=O)O)C(=O)O)NC(=O)[C@H](CC(=O)O)NC(=O)[C@H](C(C)(C)O)NC(=O)[C@H](CC2CCCCC2)NC(=O)[C@H](CCN)NC1=O` [Example 1171] ({CH2CO}-[Ala(morpholin-4-yl)]Y(Carboxymethyl)D[Phe(3-CF3)][Phe(4-COOH)][Bip]Q[NMeA][dL][Dab][Cha][Val(3-OH)]DC[Dab][AEEA][γGlu][AEEA]-{NH(CH2)12COOH}; thioether N-14), the IC50 stood at 0.0412 µM.

Regarding `CC(C)C[C@H]1NC(=O)[C@H](C)N(C)C(=O)[C@H](CCC(N)=O)NC(=O)[C@H](Cc2ccc(-c3ccccc3)cc2)NC(=O)[C@H](Cc2ccc(C(=O)O)cc2)NC(=O)[C@H](Cc2cccc(C(F)(F)F)c2)NC(=O)[C@H](CC(=O)O)NC(=O)[C@H](Cc2ccc(OCC(=O)O)cc2)NC(=O)[C@H](CN2CCOCC2)NC(=O)CSC[C@@H](C(=O)N[C@@H](CCN)C(=O)NCCOCCOCC(=O)N[C@@H](CCC(=O)NCCOCCOCC(=O)NCCCCCCCCCCCCC(=O)O)C(=O)O)NC(=O)[C@H](CO)NC(=O)[C@H](C(C)(C)O)NC(=O)[C@H](CC2CCCCC2)NC(=O)[C@H](CCN)NC1=O` [Example 1173] ({CH2CO}-[Ala(morpholin-4-yl)]Y(Carboxymethyl)D[Phe(3-CF3)][Phe(4-COOH)][Bip]Q[NMeA][dL][Dab][Cha][Val(3-OH)]SC[Dab][AEEA][γGlu][AEEA]-{NH(CH2)12COOH}; thioether N-14), the half-maximal inhibitory concentration (IC50) is 0.0215 µM. Under `CC(=O)NCCCC[C@@H]1NC(=O)[C@H](C(C)(C)O)NC(=O)[C@H](CC2CCCCC2)NC(=O)[C@H](CCN)NC(=O)[C@@H](CC(C)C)NC(=O)[C@H](C)N(C)C(=O)[C@H](CCC(N)=O)NC(=O)[C@H](Cc2ccc(-c3ccccc3)cc2)NC(=O)[C@H](Cc2ccc(C(=O)O)cc2)NC(=O)[C@H](Cc2cccc(C(F)(F)F)c2)NC(=O)[C@H](CC(=O)O)NC(=O)[C@H](Cc2ccc(OCC(=O)O)cc2)NC(=O)[C@H](CN2CCOCC2)NC(=O)CSC[C@@H](C(=O)N[C@@H](CCN)C(=O)NCCOCCOCC(=O)N[C@@H](CCC(=O)NCCOCCOCC(=O)NCCCCCCCCCCCCC(=O)O)C(=O)O)NC1=O` [Example 1174] ({CH2CO}-[Ala(morpholin-4-yl)]Y(Carboxymethyl)D[Phe(3-CF3)][Phe(4-COOH)][Bip]Q[NMeA][dL][Dab][Cha][Val(3-OH)]K(Ac)C[Dab][AEEA][γGlu][AEEA]-{NH(CH2)12COOH}; thioether N-14) stands 0.0234 µM; under `CC(C)C[C@H]1NC(=O)[C@H](C)N(C)C(=O)[C@H](CCCNC(N)=O)NC(=O)[C@H](Cc2ccc(-c3ccccc3)cc2)NC(=O)[C@H](Cc2ccc(C(=O)O)cc2)NC(=O)[C@H](Cc2cccc(C(F)(F)F)c2)NC(=O)[C@H](CC(=O)O)NC(=O)[C@H](Cc2ccc(OCC(=O)O)cc2)NC(=O)[C@H](CN2CCOCC2)NC(=O)CSC[C@@H](C(=O)N[C@@H](CCN)C(=O)NCCOCCOCC(=O)N[C@@H](CCC(=O)NCCOCCOCC(=O)NCCCCCCCCCCCCC(=O)O)C(=O)O)NC(=O)[C@H](CC(=O)O)NC(=O)[C@H](C(C)(C)O)NC(=O)[C@H](CC2CCCCC2)NC(=O)[C@H](CCN)NC1=O` [Example 1175] ({CH2CO}-[Ala(morpholin-4-yl)]Y(Carboxymethyl)D[Phe(3-CF3)][Phe(4-COOH)][Bip][Cit][NMeA][dL][Dab][Cha][Val(3-OH)]DC[Dab][AEEA][γGlu][AEEA]-{NH(CH2)12COOH}; thioether N-14), 0.0488 µM; under `CC(C)C[C@H]1NC(=O)[C@H](C)N(C)C(=O)[C@H](CCCNC(N)=O)NC(=O)[C@H](Cc2ccc(-c3ccccc3)cc2)NC(=O)[C@H](Cc2ccc(C(=O)O)cc2)NC(=O)[C@H](Cc2cccc(C(F)(F)F)c2)NC(=O)[C@H](CC(=O)O)NC(=O)[C@H](Cc2ccc(OCC(=O)O)cc2)NC(=O)[C@H](CN2CCOCC2)NC(=O)CSC[C@@H](C(=O)N[C@@H](CCN)C(=O)NCCOCCOCC(=O)N[C@@H](CCC(=O)NCCOCCOCC(=O)NCCCCCCCCCCCCC(=O)O)C(=O)O)NC(=O)[C@H](CCC(=O)O)NC(=O)[C@H](C(C)C)NC(=O)[C@H](CC2CCCCC2)NC(=O)[C@H](CCN)NC1=O` [Example 1176] ({CH2CO}-[Ala(morpholin-4-yl)]Y(Carboxymethyl)D[Phe(3-CF3)][Phe(4-COOH)][Bip][Cit][NMeA][dL][Dab][Cha]VEC[Dab][AEEA][γGlu][AEEA]-{NH(CH2)12COOH}; thioether N-14), 0.0156 µM.

One may read the IC50 as the concentration that gives 50% inhibition.

The values are drawn from patent US20260070945A1, “MACROCYCLIC IMMUNOMODULATORS” (Bristol-Myers Squibb Company, priority 2022, published 2026).
